Measurements reported in patent US20140066411A1, “PHARMACEUTICAL COMPOSITIONS FOR EXTENDED RELEASE OF AZO-BONDED 5-AMINOSALICYLIC ACID COMPOSITIONS” (Depomed, Inc., priority 2012, published 2014).

Experiment: Dissolving of olsalazine in dissolution media
Format: physicochemical
Description: Formulation 4 tablets were also made using pharmaceutical grade olsalazine in a micronized form in order to test the effects of drug particle size on tablet manufacturing and the ensuing release profiles. In vitro release profiles were evaluated for Formulation 4 tablets made as described in Example 1 and for tablets made using the same formula and process except with micronized olsalazine.

## olsalazine
pH 4.5 acetate buffer
  dissolving in media: did not completely dissolve
pH 7.5 phosphate buffer
  dissolving in media: dissolves easily
